{"source": "PubChem BioAssay AID2060903", "about": "(Molecular Pharmacology Branch, DTP, NCI, 2025)", "test_system": "377384-186-R-J1-PDC complex spheroid viability", "assay": "Anticancer human tumor 377384-186-R-J1-PDC patient-derived pancreatic carcinoma cell line growth inhibition [RAS]", "conditions": "for pIC50: curve of first compound; for viability, T/C: stronger effect = lower value", "method_in_brief": "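Agents were tested in combination matrices in half-log decrements from a top concentration at or near clinical Cmax (10 microM if undetermined). Targets were multi-cell spheroids of tumour lines plus HUVEC and MSC stromal cells.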", "key": {"[1]": {"conditions": "second compound 0.0316 µM, first compound 0.0316 µM"}, "[2]": {"conditions": "second compound 0.0316 µM, first compound 0.1 µM"}, "[3]": {"conditions": "second compound 0.0316 µM, first compound 0.316 µM"}, "[4]": {"conditions": "second compound 0.0316 µM, first compound 1 µM"}, "[5]": {"conditions": "second compound 0.0316 µM, first compound 3.16 µM"}, "[6]": {"conditions": "second compound 0.0316 µM, first compound 10 µM"}, "[7]": {"conditions": "second compound 0.1 µM, first compound 0.0316 µM"}, "[8]": {"conditions": "second compound 0.1 µM, first compound 0.1 µM"}, "[9]": {"conditions": "second compound 0.1 µM, first compound 0.316 µM"}, "[10]": {"conditions": "second compound 0.1 µM, first compound 1 µM"}, "[11]": {"conditions": "second compound 0.1 µM, first compound 3.16 µM"}, "[12]": {"conditions": "second compound 0.1 µM, first compound 10 µM"}, "[13]": {"conditions": "second compound 0.316 µM, first compound 0.0316 µM"}, "[14]": {"conditions": "second compound 0.316 µM, first compound 0.1 µM"}, "[15]": {"conditions": "second compound 0.316 µM, first compound 0.316 µM"}, "[16]": {"conditions": "second compound 0.316 µM, first compound 1 µM"}, "[17]": {"conditions": "second compound 0.316 µM, first compound 3.16 µM"}, "[18]": {"conditions": "second compound 0.316 µM, first compound 10 µM"}, "[19]": {"conditions": "second compound 1 µM, first compound 0.0316 µM"}, "[20]": {"conditions": "second compound 1 µM, first compound 0.1 µM"}, "[21]": {"conditions": "second compound 1 µM, first compound 0.316 µM"}, "[22]": {"conditions": "second compound 1 µM, first compound 1 µM"}, "[23]": {"conditions": "second compound 1 µM, first compound 3.16 µM"}, "[24]": {"conditions": "second compound 1 µM, first compound 10 µM"}}, "note": "pIC50: −log10 of the molar value.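 Also: spheroids exposed to compounds for seven days before readout.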"}
{"smiles": "CC(Nc1ccc2c(c1)OCCn1cc(N3C(=O)OCC3C(F)F)nc1-2)C(N)=O", "note": "(centres undefined) + C#Cc1c(F)ccc2cc(O)cc(-c3ncc4c(N5CC6CCC(C5)N6)nc(OCC56CCCN5CC(F)C6)nc4c3F)c12", "values": [{"measurement": "pIC50", "setting": "second compound 0.0316 µM", "value": "> 7.50"}, {"measurement": "pIC50", "setting": "second compound 0.1 µM", "value": "> 7.50"}, {"measurement": "pIC50", "setting": "second compound 0.316 µM", "value": "> 7.50"}, {"measurement": "pIC50", "setting": "second compound 1 µM", "value": "> 7.50"}, {"measurement": "pIC50", "setting": "second compound 3.16 µM", "value": "> 7.50"}, {"measurement": "pIC50", "setting": "second compound 10 µM", "value": "> 7.50"}, {"measurement": "viability, T/C", "setting": "[1]", "value": 15.8, "unit": "%"}, {"measurement": "viability, T/C", "setting": "[2]", "value": 14.3, "unit": "%"}, {"measurement": "viability, T/C", "setting": "[3]", "value": 7.76, "unit": "%"}, {"measurement": "viability, T/C", "setting": "[4]", "value": 6.8, "unit": "%"}, {"measurement": "viability, T/C", "setting": "[5]", "value": 5.84, "unit": "%"}, {"measurement": "viability, T/C", "setting": "[6]", "value": 4.21, "unit": "%"}, {"measurement": "viability, T/C", "setting": "[7]", "value": 6.67, "unit": "%"}, {"measurement": "viability, T/C", "setting": "[8]", "value": 6.43, "unit": "%"}, {"measurement": "viability, T/C", "setting": "[9]", "value": 3.06, "unit": "%"}, {"measurement": "viability, T/C", "setting": "[10]", "value": 2.11, "unit": "%"}, {"measurement": "viability, T/C", "setting": "[11]", "value": 1.21, "unit": "%"}, {"measurement": "viability, T/C", "setting": "[12]", "value": 0.7, "unit": "%"}, {"measurement": "viability, T/C", "setting": "[13]", "value": 3.3, "unit": "%"}, {"measurement": "viability, T/C", "setting": "[14]", "value": 2.54, "unit": "%"}, {"measurement": "viability, T/C", "setting": "[15]", "value": 1.59, "unit": "%"}, {"measurement": "viability, T/C", "setting": "[16]", "value": 0.81, "unit": "%"}, {"measurement": "viability, T/C", "setting": "[17]", "value": 0.63, "unit": "%"}, {"measurement": "viability, T/C", "setting": "[18]", "value": 0.43, "unit": "%"}, {"measurement": "viability, T/C", "setting": "[19]", "value": 2.75, "unit": "%"}, {"measurement": "viability, T/C", "setting": "[20]", "value": 1.42, "unit": "%"}, {"measurement": "viability, T/C", "setting": "[21]", "value": 0.85, "unit": "%"}, {"measurement": "viability, T/C", "setting": "[22]", "value": 0.69, "unit": "%"}, {"measurement": "viability, T/C", "setting": "[23]", "value": 0.44, "unit": "%"}, {"measurement": "viability, T/C", "setting": "[24]", "value": 0.27, "unit": "%"}, {"measurement": "viability, T/C", "setting": "second compound 3.16 µM, first compound 0.0316 µM", "value": 1.42, "unit": "%"}, {"measurement": "viability, T/C", "setting": "second compound 3.16 µM, first compound 0.1 µM", "value": 0.91, "unit": "%"}, {"measurement": "viability, T/C", "setting": "second compound 3.16 µM, first compound 0.316 µM", "value": 0.56, "unit": "%"}, {"measurement": "viability, T/C", "setting": "second compound 3.16 µM, first compound 1 µM", "value": 0.32, "unit": "%"}, {"measurement": "viability, T/C", "setting": "second compound 3.16 µM, first compound 3.16 µM", "value": 0.39, "unit": "%"}, {"measurement": "viability, T/C", "setting": "second compound 3.16 µM, first compound 10 µM", "value": 0.32, "unit": "%"}, {"measurement": "viability, T/C", "setting": "second compound 10 µM, first compound 0.0316 µM", "value": 0.95, "unit": "%"}, {"measurement": "viability, T/C", "setting": "second compound 10 µM, first compound 0.1 µM", "value": 0.23, "unit": "%"}, {"measurement": "viability, T/C", "setting": "second compound 10 µM, first compound 0.316 µM", "value": 0.14, "unit": "%"}, {"measurement": "viability, T/C", "setting": "second compound 10 µM, first compound 1 µM", "value": 0.17, "unit": "%"}, {"measurement": "viability, T/C", "setting": "second compound 10 µM, first compound 3.16 µM", "value": 0.45, "unit": "%"}, {"measurement": "viability, T/C", "setting": "second compound 10 µM, first compound 10 µM", "value": 0.11, "unit": "%"}]}
{"smiles": "C[C@@H](NC(=O)c1ncnc(N)c1Cl)c1ncc(C(=O)Nc2cc(C(F)(F)F)c(Cl)cn2)s1", "note": "+ C=CC(=O)N1CCN(c2nc(OCC3CCCN3C)nc3c(F)c(-c4nc(N)cc(C)c4C(F)(F)F)c(Cl)cc23)C(C)C1", "values": [{"measurement": "pIC50", "setting": "second compound 0.00316 µM", "value": "< 5.00"}, {"measurement": "pIC50", "setting": "second compound 0.01 µM", "value": "< 5.00"}, {"measurement": "pIC50", "setting": "second compound 0.0316 µM", "value": "< 5.00"}, {"measurement": "pIC50", "setting": "second compound 0.1 µM", "value": "< 5.00"}, {"measurement": "pIC50", "setting": "second compound 0.316 µM", "value": "< 5.00"}, {"measurement": "pIC50", "setting": "second compound 1 µM", "value": "< 5.00"}, {"measurement": "viability, T/C", "setting": "second compound 0.00316 µM, first compound 0.0316 µM", "value": 90, "unit": "%"}, {"measurement": "viability, T/C", "setting": "second compound 0.00316 µM, first compound 0.1 µM", "value": 85.2, "unit": "%"}, {"measurement": "viability, T/C", "setting": "second compound 0.00316 µM, first compound 0.316 µM", "value": 83.8, "unit": "%"}, {"measurement": "viability, T/C", "setting": "second compound 0.00316 µM, first compound 1 µM", "value": 108, "unit": "%"}, {"measurement": "viability, T/C", "setting": "second compound 0.00316 µM, first compound 3.16 µM", "value": 120, "unit": "%"}, {"measurement": "viability, T/C", "setting": "second compound 0.00316 µM, first compound 10 µM", "value": 122, "unit": "%"}, {"measurement": "viability, T/C", "setting": "second compound 0.01 µM, first compound 0.0316 µM", "value": 98.5, "unit": "%"}, {"measurement": "viability, T/C", "setting": "second compound 0.01 µM, first compound 0.1 µM", "value": 86.3, "unit": "%"}, {"measurement": "viability, T/C", "setting": "second compound 0.01 µM, first compound 0.316 µM", "value": 102, "unit": "%"}, {"measurement": "viability, T/C", "setting": "second compound 0.01 µM, first compound 1 µM", "value": 118, "unit": "%"}, {"measurement": "viability, T/C", "setting": "second compound 0.01 µM, first compound 3.16 µM", "value": 122, "unit": "%"}, {"measurement": "viability, T/C", "setting": "second compound 0.01 µM, first compound 10 µM", "value": 131, "unit": "%"}, {"measurement": "viability, T/C", "setting": "[1]", "value": 98.4, "unit": "%"}, {"measurement": "viability, T/C", "setting": "[2]", "value": 87.8, "unit": "%"}, {"measurement": "viability, T/C", "setting": "[3]", "value": 101, "unit": "%"}, {"measurement": "viability, T/C", "setting": "[4]", "value": 118, "unit": "%"}, {"measurement": "viability, T/C", "setting": "[5]", "value": 116, "unit": "%"}, {"measurement": "viability, T/C", "setting": "[6]", "value": 130, "unit": "%"}, {"measurement": "viability, T/C", "setting": "[7]", "value": 84, "unit": "%"}, {"measurement": "viability, T/C", "setting": "[8]", "value": 103, "unit": "%"}, {"measurement": "viability, T/C", "setting": "[9]", "value": 92.3, "unit": "%"}, {"measurement": "viability, T/C", "setting": "[10]", "value": 115, "unit": "%"}, {"measurement": "viability, T/C", "setting": "[11]", "value": 120, "unit": "%"}, {"measurement": "viability, T/C", "setting": "[12]", "value": 124, "unit": "%"}, {"measurement": "viability, T/C", "setting": "[13]", "value": 98.3, "unit": "%"}, {"measurement": "viability, T/C", "setting": "[14]", "value": 87.1, "unit": "%"}, {"measurement": "viability, T/C", "setting": "[15]", "value": 119, "unit": "%"}, {"measurement": "viability, T/C", "setting": "[16]", "value": 115, "unit": "%"}, {"measurement": "viability, T/C", "setting": "[17]", "value": 143, "unit": "%"}, {"measurement": "viability, T/C", "setting": "[18]", "value": 134, "unit": "%"}, {"measurement": "viability, T/C", "setting": "[19]", "value": 93.9, "unit": "%"}, {"measurement": "viability, T/C", "setting": "[20]", "value": 109, "unit": "%"}, {"measurement": "viability, T/C", "setting": "[21]", "value": 110, "unit": "%"}, {"measurement": "viability, T/C", "setting": "[22]", "value": 115, "unit": "%"}, {"measurement": "viability, T/C", "setting": "[23]", "value": 122, "unit": "%"}, {"measurement": "viability, T/C", "setting": "[24]", "value": 118, "unit": "%"}]}
